The source of these data is US8940911B2, “Squarylated lactones inhibitors for bacterial biofilm formation” (Syracuse University, priority 2012, dated 2015).

One series concerns E. coli RP437. Description: Static biofilm inhibition assay (crystal violet, 96-well plate). In kind it is cell-based, Escherichia coli. The note with it: E. coli RP437, 200 μM, 24 h, crystal violet. The text has this: A primary objective was to test the ability of SHLs to inhibit biofilm formation against E. coli RP437. […] Viable controls were required that would allow us to measure and compare the activity of SHLs against known biofilm inhibitors and naturally occurring AI-1 signal molecules. […] The activity of this class of molecule is presumably similar or even marginally higher than that of brominated furanone (BF8 48) (56%).
For the present invention, the E. coli RP437 biofilms were allowed to develop in a 96-well plate in the absence or presence of SHLs. After 24 hours, the planktonic bacteria and remaining media were removed and the crystal violet was introduced in the wells. The bacterial biofilm being formed at the air/liquid interface on the inside wall of the well is stained readily by crystal violet. After removing the excess crystal violet and repeatedly washing the wells with water, followed by ethanol solubilization of the dye, allows quantification of the amount of biofilm by spectrophotometry (OD600). […] We believe that the observed biofilm inhibition activity cannot be directly attributed to any predominant structural feature inherent in the SHLs. Rather, the small deviations in the structures of the SHLs and their effect on biofilm formation could be a result of the nature of non-covalent forces that arise during SHLs presumed binding within the receptor active site.
An overnight culture of E. coli RP437 grown in LB media (OD600 of 1.0) containing streptomycin (10 μg/mL) was subsequently sub-cultured to an OD600 of 0.04 (1:100 dilution with LB media). To each well in the solvent resistant polypropylene or polystyrene-based 96-well microtiter plates were added 200 μL of the sub-cultured bacteria respectively. To each of the wells containing the bacterial cultures varying concentrations of the synthetic molecules was added and the contents in each well were gently mixed. Control wells comprised of untreated bacterial culture (four replicates) and the LB media (four replicates). The microtiter plates were then covered and wrapped in a Saran wrap and allowed to incubate at 37° C. for 24 hours without shaking. After that time, the microbial medium in each well was discarded and the remaining biofilm that was formed during incubation was stained with 225 μL of a 0.1% crystal violet solution and allowed to incubate at room temperature for 30 minutes. After the incubation period, the crystal violet was discarded and the wells were gently washed twice with water (230-250 μL) and allowed to air dry for 15-20 minutes. For the purpose of solubilizing the remaining crystal violet that had stained the biofilm present in the interior of the 96-well plates, a 250 μL solution of 95% ethanol was used. After the addition of 95% ethanol, the contents of each well were mixed thoroughly and allowed to sit for 15-20 minutes. Finally, the biofilm formed was quantified by transferring 100 μL of the ethanol solution into a fresh polystyrene microtiter dish that was subsequently read by an absorbance plate reader (A600). After elimination of background absorbance, the percentage inhibition was calculated by dividing the amount of absorbed crystal violet in wells that contained the synthetic compound by the amount of absorbed crystal violet in wells that contained bacteria only (control). Biofilm assays for each synthetic compound were repeated two to three times and each concentration considered for inhibition studies were tested over four replicates.

For series [1], the system named is DsRed-express-labeled E. coli RP437. As to the kind of experiment: Confocal imaging of E. coli biofilms on stainless steel coupons (COMSTAT). In kind it is cell-based, Escherichia coli. The conditions noted are these: 200 μM, 24 h at 37° C., CLSM/COMSTAT. On the procedure: The effects of SHLs upon the bacterial biofilm were examined; more specifically, the effect of SHLs upon the biofilm architecture. […] These studies were conducted by static biofilm assays employing crystal violet staining that indicates the total biomass that resides within a biofilm but provides no indication regarding the topology of the biofilms. To elucidate the topological features assumed by the E. coli RP437 biofilm in the presence of SHLs and BF8 48, studies of biofilms consisting of DsRed-express-labeled E. coli RP437 that is fluorescent and can be easily visualized by confocal laser scanning microscopy (CLSM) were performed. […] Further, the stacked images in vinyl-SHL 3 indicating the maximum thickness of the biofilm is considerably smaller than the biofilms in BF8 48 and the untreated E. coli samples. We developed the biofilms consisting of DsRed-express-labeled E. coli on stainless steel coupons (316 L, 1 in×1 in.) for 24 h at 37° C. that were treated with BF8 48 or SHLs or were left untreated. All the samples were analyzed with CLSM (see FIG. 8) and the maximum thickness of biofilms calculated using the COMSTAT software. […] Moreover, butyl-SHL 8 and butoxy-SCPA 46 reduce the biofilm thickness by 38% and 27%, respectively.
An overnight culture of E. coli RP437 pRSH103 grown in LB media (OD600 of 1.0) containing tetracycline (3 μg/mL) was subsequently sub-cultured to an OD600 of 0.04 (1:100 dilution with LB media). To each well in the solvent resistant polypropylene or polystyrene-based 24-well microtiter plates was added 200 μM synthetic molecules in DMSO solution respectively. In addition, to each of the wells containing the known concentrations of synthetic molecules was added 2 mL of the sub-cultured bacteria and the contents in each well were gently mixed. […] The fluorescent emission was detected with a LP 560 nm emission filter. The coupons were gently placed upside down on a microscope cover glass (24×60 mm, No. 2, VWR International LLC, West Chester, Pa., USA) and analyzed with CLSM. […]

The subject of another series is SK-N-SH cells. Description: Human neuroblastoma cancer cell cytotoxicity assay (CCK-8). The conditions noted are these: 200 or 300 μM, 1 h exposure, read after 24 h. In kind it is cell-based. On the procedure: After examining the efficacy of SHLs at inhibiting biofilm, dispersing established biofilms, and reducing the maximum thickness of biofilms without being toxic to the planktonic bacterial cells, we tested the cytotoxicity of the key potent SHLs on the human neuroblastoma cancer cell line SK-N-SH. These studies were conducted such that the SK-N-SH cells were subjected to the maximum concentrations of the key potent SHLs tested on bacteria.
A previously grown T-flask of SK-N-SH cells was observed under a microscope to confirm the confluence of the cells. Next, the old media was discarded and the adherent cells were washed with ˜10 mL of MEM(−). The wash was discarded and 2 mL of Trypsin-EDTA solution was added to the T-flask and incubated for 10 minutes at 37° C. and at 5% atmosphere of CO2. Afterwards, the flask was viewed under a microscope to determine if the cells were suspended in the solution. Subsequently, ˜8 mL of MEM(+) was added to the flask and carefully mixed via pipette to break-up any large clusters of cells. 100 μL of the culture was added to an Eppendorf tube and combined with 100 μL of […]. A hemocytometer and glass cover slide was carefully cleaned with a kimwipe and ethanol. Placing the glass cover slide on top of the hemocytometer, 10 μL of the mixture in the Eppendorf tube was pipetted into the two grooves on the hemocytometer, avoiding the generation of bubbles. The hemocytometer was viewed one chamber at time under a microscope and the live cells were counted using the hemocytometer cell counting method. The remaining cell culture in the T-flask was diluted with MEM(+) to 25 mL such that there would be ˜5000 cells/mL. 100 μL of the culture was placed into wells on a 96 well plate such that one column had only MEM(+) and the wells on the outer perimeter of the plate were left empty. Four plates were made in this manner so that there would be plates for times 0, 24, 48, and 72 h. The plate was then incubated for 24 h at 37° C. and at 5% atmosphere of CO2. Subsequently, the old media was discarded and the wells were subjected to either 200 μM or 300 μM solutions of compounds 3, 4, 8, and 46 in MEM(+) (100 μL) such that one column still contained only MEM(+) and one column contained MEM(+) and untreated cells. The plate was incubated for 1 h and then the solutions were discarded and fresh MEM(+) media was added (100 μL). Each plate was then incubated for the desired time (0, 24, 48, or 72 h). After incubation, 10 μL of CCK-8 solution was added to each well and then the plate was incubated for 2 h followed by reading the OD450 with a microplate reader.

Series [2] relates to P. aeruginosa PAO1-GFP/pSMC2. Description: Confocal microscopy analysis of P. aeruginosa biofilms (COMSTAT). In kind it is cell-based, Pseudomonas aeruginosa. The conditions noted are these: 400 μM, 24 h at 37° C., CLSM/COMSTAT. The procedure:
FIG. 13 is a series of representative confocal laser scanning microscopy images of biofilm formation by P. aeruginosa PAO1-GFP/pSMC2 in the absence of inhibitor (A); and in the presence of 400 μM BF4 49 (B); 400 μM hexyl-SHL 9 (C); 400 μM tolyl-SHL 11 (D); and 400 μM thienyl-SHL 12 (E).
FIG. 14 is a graph of quantification of biofilm formation by P. aeruginosa PAO1-GFP/pSMC2 in the absence and presence of 400 μM SHLs 9, 11 and 12. Biomass, mean thickness, and surface area are quantified from fluorescence image using COMSTAT software. Z-Stack images from at least four different locations were used. Values are normalized by that of the brominated furanone-free control.
We developed the biofilms consisting of […] P. aeruginosa on stainless steel coupons (316 L, ⅜ in×⅜ in.) for 24 h at 37° C. in the absence or presence of 400 μM hexyl-SHL 9, tolyl-SHL 11, thienyl-SHL 12, and BF4 49. All the samples were analyzed with CLSM (see FIG. 13) and the biomass, surface area, and mean thickness of biofilms were calculated using the COMSTAT software. Tolyl-SHL 11 reduced the biomass by ˜90%, similar to that of the toxic BF4 49.

As to `CCCCOc1c(OCCCC)c(=O)c1=O` [BSQ 44, 3,4-dibutoxy-cyclobut-3-ene-1,2-dione, reference compound], the “biofilm inhibition (in words)” value in the series on E. coli RP437 was “Poor biofilm inhibition”.

In the case of `CC(C)Oc1c(OC(C)C)c(=O)c1=O` [IPSQ 42, reference compound], the “biofilm inhibition (in words)” value with E. coli RP437 is “Poor biofilm inhibition”.

For the compound `C=CCc1c(NC2CCOC2=O)c(=O)c1=O` (stereo not drawn) [allyl-SHL2], the “biofilm inhibition (in words)” value in the series on E. coli RP437 is listed as “Poor biofilm inhibition”.

On to `CCCCOc1c(NC2CCOC2=O)c(=O)c1=O` (stereo not drawn) [butoxy-SHL 1], for which the “biofilm inhibition (in words)” value in the series with E. coli RP437 was “weaker biofilm inhibition”.

Take `CCCCc1c(NC2CCOC2=O)c(=O)c1=O` (stereo not drawn) [butyl-SHL 8]: in the series on E. coli RP437, the “inhibition of biofilm formation” value stood at 48%. In series [1], the “reduction of the maximum thickness of biofilm” value is on record as 38%. Further, in the series with SK-N-SH cells, the “cytotoxicity on human neuroblastoma cancer cells (in words)” value is “does not appear to be toxic”.

Turning to `CCCCCCc1c(NC2CCOC2=O)c(=O)c1=O` (stereo not drawn) [hexyl-SHL 9], the “inhibition of biofilm formation” value in the series with E. coli RP437 is 42%. Further, the “P. aeruginosa biofilm inhibition (in words)” value in series [2] is listed as “mild”.

As to `O=C1OCCC1Nc1c(-c2ccccc2)c(=O)c1=O` (stereo not drawn) [phenyl-SHL 10], the “inhibition of biofilm formation” value in the series with E. coli RP437 amounted to 44%.

With `C=Cc1c(NC2CCOC2=O)c(=O)c1=O` [vinyl-L-SHL 4], the “biofilm inhibition (in words)” value with E. coli RP437 is listed as “weaker biofilm inhibition”. Besides, the “cytotoxicity on human neuroblastoma cancer cells (in words)” value with SK-N-SH cells is “toxic”.
